Measured values published in ChEMBL document CHEMBL1201862, “PubChem BioAssay data set” (2004).
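How tested: cells in 96-well plates exposed to compound for 48 hours at five concentrations. Abbreviation: GI50, concentration required for 50% inhibition of growth.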 The source made the active and inactive calls. No stated cut-off is given here; in the data, active = GI50 up to about 1.1 µM and inactive = higher.

What was measured:
Test in all cases: NCI tumour cell line growth inhibition, 48 h
OVCAR-3 = test system: OVCAR-3
SNB-19 = test system: SNB-19
NCI/ADR-RES = test system: NCI/ADR-RES
PC-3 = test system: PC-3
MOLT-4 = test system: MOLT-4
KM12 = test system: KM12
CAKI-1 = test system: CAKI-1
CCRF-CEM = test system: CCRF-CEM
UO-31 = test system: UO-31
TK-10 = test system: TK-10
MDA-MB-435 = test system: MDA-MB-435
HOP-92 = test system: HOP-92
HCT-116 = test system: HCT-116
OVCAR-8 = test system: OVCAR-8
EKVX = test system: EKVX
OVCAR-4 = test system: OVCAR-4
SF-295 = test system: SF-295
T47D = test system: T47D
HOP-62 = test system: HOP-62

| SMILES | GI50 (OVCAR-3) | GI50 (SNB-19) | GI50 (NCI/ADR-RES) | GI50 (PC-3) | GI50 (MOLT-4) | GI50 (KM12) | GI50 (CAKI-1) | GI50 (CCRF-CEM) | GI50 (UO-31) | GI50 (TK-10) | GI50 (MDA-MB-435) | GI50 (HOP-92) | GI50 (HCT-116) | GI50 (OVCAR-8) | GI50 (EKVX) | GI50 (OVCAR-4) | GI50 (SF-295) | GI50 (T47D) | GI50 (HOP-62) |
| --- | --- | --- | --- | --- | --- | --- | --- | --- | --- | --- | --- | --- | --- | --- | --- | --- | --- | --- | --- |
| CC(=O)OCc1cc2c(s1)C(=O)c1sccc1C2=O | 0.223 µM (active) | 0.177 µM (active) | 0.2 µM (active) | 0.194 µM (active) | 0.356 µM (active) | 0.234 µM (active) | 1.84 µM (inactive) | 0.383 µM (active) | 0.178 µM (active) | 1.79 µM (inactive) | 0.0178 µM (active) | 0.528 µM (active) | 1.74 µM (inactive) | 0.183 µM (active) | 0.197 µM (active) | 0.191 µM (active) | 0.0541 µM (active) | 0.309 µM (active) |  |
| Cc1oc2nc(N(C)C)nc(NN)c2c1C | > 100 µM (inactive) | > 100 µM (inactive) | > 100 µM (inactive) | > 100 µM (inactive) | > 100 µM (inactive) | > 100 µM (inactive) | > 100 µM (inactive) | > 100 µM (inactive) | 61.7 µM (inactive) | > 100 µM (inactive) | > 100 µM (inactive) | > 100 µM (inactive) | > 100 µM (inactive) | > 100 µM (inactive) | > 100 µM (inactive) | > 100 µM (inactive) | > 100 µM (inactive) | > 100 µM (inactive) | > 100 µM (inactive) |
| CNCCCn1c2ccccc2c2c3c(c(-c4ccsc4)cc21)C(=O)NC3=O | 1.15 µM (inactive) | 1.6 µM (inactive) | 0.71 µM (active) | 0.178 µM (active) | 1.54 µM (inactive) | 0.0174 µM (active) | 0.519 µM (active) | 0.216 µM (active) | 0.286 µM (active) | 1.35 µM (inactive) | 1.12 µM (active) |  | 1.4 µM (inactive) | 0.281 µM (active) | 1.85 µM (inactive) | 1.59 µM (inactive) | 0.0953 µM (active) | 2.09 µM (inactive) | 1.02 µM (active) |
| C=CCc1cccc2cc(C(=O)Nc3ccccn3)c(=N)oc12 | > 100 µM (inactive) | > 100 µM (inactive) | > 100 µM (inactive) | > 100 µM (inactive) | > 100 µM (inactive) | > 100 µM (inactive) | > 100 µM (inactive) | > 100 µM (inactive) |  |  | > 100 µM (inactive) | > 100 µM (inactive) | 56.6 µM (inactive) | > 100 µM (inactive) |  | > 100 µM (inactive) |  | 55.5 µM (inactive) | > 100 µM (inactive) |
| Cc1c(O)c(OC2OC(CO)C(O)C(O)C2O)cc2c1CC[C@@H]1C2(C)C(=O)C[C@]2(C)[C@@H]([C@@](C)(O)C3CCC(C)(C)O3)[C@H](O)C[C@@]12C (some centres undefined) | > 100 µM (inactive) | > 100 µM (inactive) | > 100 µM (inactive) | > 100 µM (inactive) | > 100 µM (inactive) | > 100 µM (inactive) | > 100 µM (inactive) | > 100 µM (inactive) | > 100 µM (inactive) | > 100 µM (inactive) | > 100 µM (inactive) | > 100 µM (inactive) | > 100 µM (inactive) | > 100 µM (inactive) | > 100 µM (inactive) | > 100 µM (inactive) | > 100 µM (inactive) | > 100 µM (inactive) | > 100 µM (inactive) |
